Series [1] in a line: Metabolic stability in human liver microsomes. The class given is in vitro ADME. Conditions: human liver microsomes 0.5 mg/mL; read-out: Human liver microsomes Half-life t1/2. The protocol:
(§1) Step 1: the mother liquor is prepared according to the composition ratio in Table 3 below:
(§2) Step 2: two experiments were respectively carried out as follows:
(§3) A) Adding NADPH:10 μL of liver microsomes at a concentration of 20 mg/mL and 40 μL of NADPH at a concentration of 10 mM were added to the incubation test. The final concentrations of liver microsomes and NADPH were 0.5 mg/mL and 1 mM, respectively.
(§4) B) Without addition of NADPH:10 μL of liver microsomes at a concentration of 20 mg/mL and 40 μL of high purity water were added to the incubation test. The final concentration of liver microsome was 0.5 mg/mL.
(§5) Step 3: 4 μL of 200 µM positive control or test compound was added and then the reaction was carried out. The positive control in this experiment was Verapamil. The final concentration of test compound was […].
(§6) Step 4: 50 μL was respectively taken out from the reaction solutions at the time points of 0, 15, 30, 45 and 60 min. 4× volumes of acetonitrile and IS (alprazolam at the concentration of 100 nM, labetalol at the concentration of 200 nM, caffeine at the concentration of 200 nM and ketoprofen at the concentration of 2 μM) were added to the reaction solution. The sample was centrifuged at 3,220 gram gravity for 40 minutes. 100 μL high-purity water was added to 100 μL supernatant and then analyzed by LC-MS/MS.
(§7) Step 5: Data analysis: the peak area was determined from the extracted ion chromatogram. The slope value k was determined by linear regression of the natural logarithm from the curve produced by the remaining percentage of the parent drug vs the incubation time.
(§8) In vitro half-life (in vitro t1/2) is determined by the slope value: in vitro t1/2=−(0.693/k)
On the technique in general: Liver microsomes are a subcellular fraction often used to study metabolism.

Series [2] in a line: Pharmacokinetic experiment in mice (PO). The class given is in vivo. Conditions: ICR, mouse, plasma, 10 mg/kg, 10 mpk; for Cmax: read-out: Blood concentration Cmax; for AUC: read-out: Curve area AUC; for half-life: read-out: Half life t1/2 (converted); for Tmax: read-out: Peak hour tmax. The protocol: Experimental animals: ICR mice (Chengdu Dashuo Experimental Animal Co., Ltd.)
5 mg of compound (compound 4 of the present invention, using similar compound INCB-24360 in clinical Phase III as reference compound) was accurately weighed, and the corresponding vehicle was added to a final volume of 10 ml, then mixed by ultrasonic vortexing. The solution at the concentration of 0.5 mg/ml was prepared. The final solution (0.2 ml) prepared was stored at −20° C. for concentration determination. 9 healthy adult ICR mice (20-30 g) were fasted overnight (free access to water), and received the administration volume of 0.2 ml/10 g by gavage; just prior to administration and 0.5, 1, 2, 4, 6, 8, 12, and 24 h after administration, 0.1 ml blood was collected from the retroorbital venous plexus, centrifuged at 4° C. for 5 min to separate the plasma, and stored at −20° C. for testing. Then the concentration of test compound in plasma was measured by LC/MS/MS method.

Series [3] can be described thus: Metabolic stability in rat liver microsomes. It counts as in vitro ADME. Conditions: rat liver microsomes 0.5 mg/mL; read-out: Rat liver microsomes Half-life t1/2. The protocol: as §1, §2, §3, §4, §5, §6, §7, §8
Series [4] addresses IDO1 protease activity in Hela cells (Homo sapiens (Human), UniProt P14902). The series can be described thus: Inhibition of IDO protease in HeLa cells (IDO/kynurenine experiment, IFN-γ induced). It counts as cell-based. Conditions: 10 ng/mL IFN-γ, 48 h, OD480 nm, read-out: IC50, inhibitory activity against IDO1 protease activity in Hela cells. As to the method: 2) Experimental Method for Compound Assay 2.1 Seeding HeLa Cells into 96 Well Plate
The medium was taken out from the flask and the cells were washed with PBS. TrypLE solution was added to the flask to make the cells separate. The cells were further washed once with fresh medium containing 10% FBS, and then re-suspended in the medium until the final concentration was 2.3×10^6/mL. Only cells with activity greater than 90% can be used for detection. HeLa cells were planted into 100 μL suitable growth median 96 well plate at 3000 cells/well. The cells were incubated at 37° C. under 5% CO2 overnight.
The compound was diluted to the concentration of 10 mM with DMSO, that was then continuously diluted 3 times to get 9 concentrations. 5 μL compound was added into 45 μL media as the median dilution (10 times dilution, containing 10% DMSO). 96 μL fresh growth media were added to each well to reach the total volume of 196 μL. 2 μL compound solution was taken from the mid-diluted solution and added to the cells in the wells of the assay plate, and then incubated in a 5% CO2 incubator at 37° C. for 30 minutes. 2 μL human IFN-γ solution was added to reach a total volume of 200 μL, with the final concentration of 10 ng/mL, and the final concentration is 0.1%. The cells were incubated in 5% CO2 incubator at 37° C. for 48 h.
After incubating for another 48 hours in a 5% CO2 incubator at 37° C., 140 μL supernatant was added to each well and transferred to a new 96-well plate. 10 μL of 6.1N CCl3COOH was further added to each well, and incubated at 50° C. for 30 min after sealing. The plate was then centrifuged at 2500 rpm for 10 minutes. 100 μL supernatant in each well was transferred to another 96-well assay plate and mixed with 100 μL of 6% (w/v) p-dimethylaminobenzaldehyde. EnSpire was used to read the plate at OD480 nm.
The average data of HC (high control: 10 ng/mL IFN-γ) and LC (low control: no IFN-γ) were calculated for each screening plate. Percent inhibition of compound well (% inh)=100*(aveHC−cpd well)/(aveHC−ave LC). Finally, GraphPad Prism 6 software was used to calculate the IC50 values of compounds and draw the effect-concentration curve.

The nature of series [5]: Metabolic stability in mouse liver microsomes. The class given is in vitro ADME. Conditions: mouse liver microsomes 0.5 mg/mL; read-out: Mouse liver microsomes Half-life t1/2. The protocol: as §1, §2, §3, §4, §5, §6, §7, §8
A further series has as its target human IDO1 protease (Homo sapiens (Human), UniProt P14902). The series is described as follows: Inhibitory activity against human IDO1 protease (absorbance test method). It counts as biochemical. Conditions: IDO1 (His-tag) enzyme, absorbance at 320 nm. The protocol:
IDO1 (His-tag) enzyme(BPS Bioscience), L-tryptophan (Sigma), methylene blue (Sigma), Catalase originated from the liver of cattle (Sigma), L-ascorbic acid (Sigma), glycerol (Sigma), potassium dihydrogen phosphate solution (Sigma), Tween 20 (Sigma), automatic sampling platformLiquid handler (Bravo & Echo), microplate ReaderSpectraMax M5e (Molecular Devices).
2) Test Method of Compounds: The Compounds are Determined by Absorbance Test Method:
The tested compounds are dissolved in DMSO to prepare a high concentration of storage solution. The stock solution of reference compound was diluted with DMSO to prepare a 100× solution. In the first column of the working plate, 8 μL above tested compounds and 8 μL 100× reference compound were respectively added as the highest concentration, and then the highest concentrations were subjected to three times dilution to obtain 11 concentrations and prepare 100× solution. 0.5 μL solution was transferred from the above plate to the detection plate. To each well was added 0.5 μL 100× compound solution. For HPE and ZPE control wells, 0.5 μL 100% DMSO was added. 25 μL 2×IDO1 (His-tag) enzyme solution (containing L-ascorbic acid, methylene blue, and catalase) was added to each well. 25 μL reaction solution without IDO1 (His-tag) enzyme was added into HPE control well. The test plate was centrifugated at 1000 rpm for 1 minute to mix well. Then, the test plate was incubated at room temperature for 30 minutes. 25 μL above 2× substrate (L-tryptophan) solution was added to each well. The test plate was centrifugated at 1000 rpm for 1 minute to mix well. The detection plate was placed on ELISA (SpectraMax M5e), the temperature was set at 25° C., and the absorbance (OD value) was measured at 320 nm every 10 minutes till 60 minutes.
Calculating the increase ratio of absorbance: the slope of the absorbance increase curve from 10 min to 60 min is derived from SpectralMax M5e. The inhibition coefficient of compound was calculated: the inhibition ratio of compound=(the absorbance increase ratio of ZPE control well−the absorbance increase ratio of compound well)/(the absorbance increase ratio of ZPE control well−the absorbance increase ratio of HPE control well)×100. Results was analyzed by Prism 5.0.

This is an account of results in patent US11591301B2, “Indoleamine-2,3-dioxygenase inhibitor, preparation method therefor and use thereof” (HINOVA PHARMACEUTICALS INC., priority 2018, dated 2023).

A word on the AUC: it is the area under the concentration-time curve, a measure of exposure. The Tmax is the time at which the peak concentration occurs. By IC50 is commonly meant the midpoint of a concentration-inhibition curve.

IDO1 protease activity in Hela cells, sequence (P14902 whole entry): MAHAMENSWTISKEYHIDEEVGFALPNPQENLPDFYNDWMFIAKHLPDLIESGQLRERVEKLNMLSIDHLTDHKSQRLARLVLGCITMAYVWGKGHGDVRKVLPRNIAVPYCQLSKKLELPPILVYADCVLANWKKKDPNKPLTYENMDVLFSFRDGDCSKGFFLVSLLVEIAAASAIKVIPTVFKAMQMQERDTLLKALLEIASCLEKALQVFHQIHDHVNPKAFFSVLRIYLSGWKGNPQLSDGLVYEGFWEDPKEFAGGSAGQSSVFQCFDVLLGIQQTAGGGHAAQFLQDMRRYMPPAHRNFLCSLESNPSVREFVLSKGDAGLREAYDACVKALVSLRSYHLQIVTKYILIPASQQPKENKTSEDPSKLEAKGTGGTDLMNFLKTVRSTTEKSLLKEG
human IDO1 protease, sequence (P14902 whole entry): as above

On to `CNS(=O)(=O)CCCNc1nonc1/C(=N/O)Nc1ccc(F)c(Br)c1` [Example 11, N-(3-bromo-4-fluorophenyl)-N′-hydroxyl-4-((3-(N-methylsulfamoyl)propyl)amino)-1,2,5-oxadiazol-3-formamidine], for which, in series [1], the half-life at 2 µM amounted to 1.55 h. Moreover, in series [2], the Cmax is 687 ng/mL, the AUC turned out to be 845 ng·h/mL, the half-life was 1.15 h and the time of peak concentration (Tmax) was 0.5 h. For the same compound, the half-life at 2 µM in series [3] worked out at 0.4 h. In addition, the IC50 in series [4] was 0.008 µM. Moreover, the half-life at 2 µM in series [5] was found to be 0.167 h.
For `NS(=O)(=O)NCCNc1nonc1C(=NO)Nc1ccc(F)c(Br)c1` [INCB024360, reference compound], the figures for the half-life at 2 µM in series [1], in series [3] and in series [5] were 2.62 h, 2.43 h and 1.3 h, respectively.
As for `CCNS(=O)(=O)CCCNc1nonc1C(=NO)Nc1ccc(F)c(Br)c1` [Example 12, N-(3-bromo-4-fluorophenyl)-N′-hydroxyl-4-((3-(N-ethylsulfamoyl)propyl)amino)-1,2,5-oxadiazol-3-formamidine], the half-life at 2 µM in series [1] amounted to 2.73 h. For the same compound, in series [2], the Cmax came out at 704 ng/mL, the AUC stood at 1080 ng·h/mL, the half-life is 2.87 h and the Tmax worked out at 0.5 h. Further, at human IDO1 protease, the IC50 was determined as 0.047 µM. For the same compound, the half-life at 2 µM in series [3] worked out at 0.317 h. In addition, the IC50 in series [4] stood at 0.012 µM. For the same compound, the half-life at 2 µM in series [5] was 0.383 h.
Take `[2H]C([2H])([2H])NS(=O)(=O)CCCNc1nonc1/C(=N/O)Nc1ccc(F)c(Br)c1` [Example 27, N-(3-bromo-4-fluorophenyl)-N′-hydroxyl-4-((3-(N-(methyl-d3)sulfonyl)propyl)amino)-1,2,5-oxadiazol-3-oximecarboxamide]: the half-life at 2 µM in series [1] amounted to 5.72 h. Also, in series [2], the Cmax was 469 ng/mL, the AUC was determined as 1050 ng·h/mL, the half-life was 2.5 h and the Tmax turned out to be 0.5 h. The half-life at 2 µM in series [3] turned out to be 0.633 h. Besides, the IC50 in series [4] is 0.01 µM. In addition, in series [5], the half-life at 2 µM turned out to be 0.35 h.
Take `NS(=O)(=O)CCCCNc1nonc1C(=NO)Nc1ccc(F)c(Br)c1` [Example 22, N-(3-bromo-4-fluorophenyl)-N′-hydroxyl-4-((4-sulfamoylbutyl)amino)-1,2,5-oxadiazol-3-formamidine]: the half-life at 2 µM worked out at 29.4 h in series [1], 1.22 h in series [3] and 1.45 h in series [5]. Further, the IC50 in series [4] was determined as 0.012 µM.
With `NS(=O)(=O)CCNc1nonc1C(=NO)Nc1ccc(F)c(Br)c1` [Example 1, N-(3-bromo-4-fluorophenyl)-N′-hydroxyl-4-((2-sulfamoylethyl)amino)-1,2,5-oxadiazol-3-formamidine], the half-life at 2 µM in series [1] turned out to be 7.45 h. Also, in series [2], the Cmax is 555 ng/mL, the area under the curve (AUC) is 1320 ng·h/mL, the half-life was 1.28 h and the Tmax stood at 0.67 h. On human IDO1 protease, this compound came in with an IC50 of 0.019 µM. Besides, the half-life at 2 µM in series [3] is 1.73 h. In series [5], the half-life at 2 µM was found to be 0.8 h.
